In one data set the test system is HDF and HUVEC co-culture. Description: In vitro co-culture tube formation assay. In kind it is cell-based, human. The conditions noted are these: for tube formation, pre-formed tubes: treated after tube formation; for tube length, de novo tube formation: treated prior to tube formation, 14 days. The procedure: Representative pictures taken at day 14 are shown. Tube formation was quantified by measuring tube length ([…]) and is shown.
HDF were seeded in 96-well plate (2500 cells/well). Once HDF formed a monolayer, media was removed and HUVECs (2500 cells/well) were seeded on top of HDF. […] The effect on existing vessels was assayed by allowing tubes to form prior to treatment. Cells were treated every 3-days during 14 days of incubation, followed by washing with PBS and fixation with 4% formaldehyde for 15 min at room temperature (RT). Cells were permeabilized with 1× PBS containing 0.1% Triton X-100 for 5 min at RT and blocked 30 min in 1% BSA/PBS. Afterwards, cells were incubated with CD31 antibody (Thermo Fisher, MA5-13188) […] followed by incubation with secondary Alexa fluor 488F goat-anti-mouse (Thermo Fisher, A28175) at 1/2000 dilution for 3 h at RT. Immunolabeled samples were counterstained with Hoechst 33342 nuclear dye (Thermo Fisher, 62249) at 1/1000 dilution for 15 min. Tubes were visualized with IN Cell Analyzer 2000 using a 2× objective. Tube length was measured and quantified using the AngioTool software for each imaging session (available in the public domain at https://ccrod.cancer.gov/confluence/display/ROB2/Downloads

Data set [1] deals with primary fibroblast, immortalised fibroblast, endothelial cells and cancer cells. Description: Proliferation by live cell time-lapse imaging. Type of data set: cell-based, human. The conditions noted are these: fibroblasts or endothelial cells. The procedure:
During a proliferation assay, pictures were taken every 2 hours using a time-lapse microscope. Charts were used to display cell confluency over time.
To examine the effect of USP7 inhibition on proliferation of primary fibroblast, immortalised fibroblast, endothelial cells and cancer cells, live cell time-lapse imaging was used.

The test system of data set [2] is primary human fibroblasts (HDF) in hypoxic chamber. Description: sVEGF ELISA in primary fibroblasts under hypoxia. In kind it is cell-based. As to conditions: 48 h. The text has this: FIG. 9: USP7 inhibition decreases VEGF levels in fibroblasts under hypoxia.
In response to wounding and during tumour growth, activated fibroblasts secrete synthesizers and modifiers of the ECM but also soluble angiogenic growth factors such as VEGF. Although VEGF gene expression can be controlled by multiple transcription factors, its major regulator is hypoxia-inducible factor 1 (HIF-1). HIF-1 mediates activation of VEGF transcription in response to hypoxia in solid tumours and in various malignant cell lines.
To assess its potency in a functional assay, HDF were treated with vehicle or various concentrations of USP7 inhibitor ADC-159 and incubated for 48 hours in hypoxic chamber. Cell culture supernatants were collected, and secreted VEGF was measured by ELISA.
For the co-culture experiments, 5×10^4 cancer cells were seeded in transwell in 0.5 mL complete growth medium and placed on the top of 0.1×10^6 fibroblasts plated in 12-well in 1 mL low serum growth media overnight. Following day cancer cells were washed with PBS and media replaced with reduced (1%) serum growth media. 0.5×10^6 PBMC were plated on top of fibroblasts, incubated for 45 min and activated with CD3 (1 μg/ml final concentration) and CD28 (5 μg/ml final concentration). […] Monoculture experiments, 0.1×10^6 cells were seeded in 12-well in 1 mL of complete growth media (cancer cells) or low serum growth media (fibroblasts) and incubated overnight. […] Afterwards, cell culture media was collected, cell debris were removed by centrifugation the concentration of VEGF in the cell culture supernatants was measured using the human/mouse VEGF immunoassay Quantikine ELISA kit (R&D systems, Minneapolis, Minn., USA) according to the manufacturer's instructions. For the intracellular VEGF detection, total protein concentration was determined by BCA (Pierce Chemical, USA) and VEGF levels determined using the same kit described above.

Data set [3] relates to CT-26 mouse cancer cell line. Description: CT-26 cell viability in vitro. Type of data set: cell-based. The procedure:
CT-26 syngeneic models are in vivo models to monitor the effect of compounds on the TME. […] After 72 hours cell viability was measured by CellTiter-Glo®.

A short description of the next data set: Hep CLhep (h). Type of data set: in vitro ADME, human.
The next data set concerns the target 1A2 (Homo sapiens, UniProt P05177). Put plainly: Cyp inhibition 1A2. Type of data set: in vitro ADME. The conditions noted are these: read-out: Cyps: 1A2.
For data set [4], the system named is CT-26 tumour cells in BALB/c mouse. Description: CT-26 syngeneic tumour model with immune checkpoint inhibitors (ADC-159 study). In kind it is in vivo. The procedure: FIG. 38: Effect of USP7 inhibition in combination with immune checkpoint inhibitors […] on the tumour microenvironment in vivo. […] Tumour volume of CT-26 xenograft implanted in immuno-competent syngeneic mice treated with vehicle control, ADC-159, anti-PD-L1, anti-CTLA-4 or in combination was measured twice weekly until day 13 post tumour implantation.
FIG. 39: USP7 inhibition leads to increase survival when combined with anti-PD-L1 and anti-CTLA-4 immune checkpoint inhibitors. […] (B) Individual growth curves show improved anti-tumour response when USP7 inhibitor ADC-159 is combined with ICIs. n=10 animals/group.
For the immune checkpoint inhibitor in vivo experiments, BALB/c mouse was injected subcutaneously in the right rear flank with 5×10^5 viable CT-26 tumour cells in 0.1 mL of PBS. ADC-159 (75 mg/kg and 100 mg/kg) was dosed daily while anti-PD-L1 or anti-CTLA4 (10 mg/kg) were dosed every 3 days. Tumour volume (mm^3) was measured with callipers three times a week using the equation: Tumour Volume (TV)=0.5((W)^2×L), where W is the shortest tumour diameter (width) and L is the longest perpendicular diameter (length), in millimetres. Body weights were measured on the same days during the dosing phase. […] Graphing and statistical analysis of tumour volume using one-way ANOVA followed by Dunnett's multiple comparisons test. […]

The nature of another data set: LM CLhep (r). Type of data set: in vitro ADME, rat.
A further data set is described as follows: LM CLhep (d). In kind it is in vitro ADME, dog.
The test system of the next data set is MDCK. Put plainly: MDCK permeability. In kind it is in vitro ADME.
The nature of another data set: MDCK permeability. In kind it is in vitro ADME. The conditions noted are these: dog, MDCK; read-out: MDCK Papp ratio.
The nature of a further data set: Hep CLhep (r). Type of data set: in vitro ADME, rat.

1A2, sequence (P05177 whole entry): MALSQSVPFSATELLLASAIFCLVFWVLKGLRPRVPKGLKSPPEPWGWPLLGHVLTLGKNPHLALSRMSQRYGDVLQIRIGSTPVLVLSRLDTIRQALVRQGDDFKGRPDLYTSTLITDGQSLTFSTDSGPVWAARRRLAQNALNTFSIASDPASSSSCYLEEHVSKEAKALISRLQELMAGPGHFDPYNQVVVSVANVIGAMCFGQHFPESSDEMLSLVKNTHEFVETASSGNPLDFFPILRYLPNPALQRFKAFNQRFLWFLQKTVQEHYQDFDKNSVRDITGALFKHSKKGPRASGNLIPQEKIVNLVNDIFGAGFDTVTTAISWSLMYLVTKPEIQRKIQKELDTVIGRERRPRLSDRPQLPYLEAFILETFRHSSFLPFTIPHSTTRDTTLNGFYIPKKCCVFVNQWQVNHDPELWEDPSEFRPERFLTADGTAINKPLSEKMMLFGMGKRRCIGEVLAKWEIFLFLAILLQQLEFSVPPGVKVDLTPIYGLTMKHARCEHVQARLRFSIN

For `C[C@H](CC(=O)N1CCC(O)(Cn2cnc3c(-c4ccc(CN)cc4)n(C)nc3c2=O)CC1)c1ccccc1` [AD-04, (R)-3-(4-(Aminomethyl)phenyl)-6-((4-hydroxy-1-(3-phenylbutanoyl)piperidin-4-yl)methyl)-2-methyl-2H-pyrazolo[4,3-d]pyrimidin-7(6H)-one], in the data set on HDF and HUVEC co-culture, the “tube formation, pre-formed tubes” value is “significantly less pronounced” and the “tube length, de novo tube formation” value is listed as “significant reduction”. The proliferation entry in data set [1] is listed as “no effect”. Further, the “VEGF secretion under hypoxia” value in [2] was “decreased in a dose-dependent manner”. Besides, the “sensitivity of CT-26 cell line in vitro” value in [3] was “not sensitive”.
Turning to `CC1(C(=O)N2CCC(O)(Cn3cnc4c(cc(Cl)n4-c4ccc5c(c4)CCO5)c3=O)CC2)CC1` [ADC-159, 6-Chloro-7-(2,3-dihydrobenzofuran-5-yl)-3-((4-hydroxy-1-(1-methylcyclopropane-1-carbonyl)piperidin-4-yl)methyl)-3,7-dihydro-4H-pyrrolo[2,3-d]pyrimidin-4-One], the “Hep CLhep (h)” value in “Hep CLhep (h)” turned out to be 9. Moreover, on 1A2, the IC50 is above 20 µM. For the same molecule, in the data set on HDF and HUVEC co-culture, the “tube formation, pre-formed tubes” value is recorded as “did not have significant effect” and the “tube length, de novo tube formation” value is recorded as “inhibitory effect”. Further, the “tumour growth inhibition (TGI)” value in data set [4] (Day 13) was 23%. Further, the survival result in [4] (Kaplan-Meier, compared to vehicle controls) is on record as “modest but significant increase”. Besides, the “VEGF secretion under hypoxia” value in [2] is listed as “decreased VEGF levels in a dose-dependent manner”. Further, in data set [3], the “sensitivity of CT-26 cell line in vitro” value is recorded as “not sensitive”. For the same molecule, in “LM CLhep (r)”, the “LM CLhep (r)” value is given as 27. In addition, the “LM CLhep (d)” value in the data set “LM CLhep (d)” is 22. For the same molecule, in the data set with MDCK (A:B), the “MDCK A:B” value is reported as 0.2. Also, the “MDCK B:A” value with MDCK (B:A) is 50.1. Moreover, the efflux ratio in “MDCK permeability” is 276. Also, the “Hep CLhep (r)” value in “Hep CLhep (r)” is given as 43.

The values above are taken from patent US20230088286A1, “USP7 INHIBITOR FOR USE IN THE TREATMENT OF CANCER” (ALMAC DISCOVERY LIMITED, priority 2020, published 2023).
